Data from patent publication US20060142348A1, “Aryl sulfonamide peri-substituted bicyclics for occlusive artery disease” (deCODE Chemistry, Inc., priority 2004, published 2006).

target: T1, prostanoid EP3 receptors (Homo sapiens, UniProt P43115); test: binding on prostanoid EP3 receptors (method of Abramovitz et al.); details: read-out: Activity (EP3 receptor binding IC50)
T1 sequence (P43115 1-365 isoform P43115-3): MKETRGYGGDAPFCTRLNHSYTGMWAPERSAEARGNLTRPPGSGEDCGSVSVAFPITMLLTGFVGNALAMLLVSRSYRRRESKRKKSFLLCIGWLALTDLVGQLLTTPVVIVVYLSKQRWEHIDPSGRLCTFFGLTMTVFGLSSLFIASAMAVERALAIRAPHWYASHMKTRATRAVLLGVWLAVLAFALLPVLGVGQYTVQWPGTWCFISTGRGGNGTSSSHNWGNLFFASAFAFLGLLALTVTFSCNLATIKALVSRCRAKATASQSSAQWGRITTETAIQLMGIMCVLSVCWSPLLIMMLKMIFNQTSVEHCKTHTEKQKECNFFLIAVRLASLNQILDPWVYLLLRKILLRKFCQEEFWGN
Description: The compounds of the invention may be assayed for their binding on prostanoid EP3 receptors according to the method of Abramovitz et al. [Bioch. Biophys. Actas 1473, 285-293 (2000)]. All of the examples in the tables below have been synthesized, characterized and tested for EP3 receptor binding.
The compounds of the invention were assayed for their binding on prostanoid EP3 receptors according to the method of Abramovitz et al. [Bioch. Biophys. Acta, 1473, 285-293 (2000)]. […] Compounds with IC50<1 μM are shown as +++; compounds with IC50<1-10 μM are shown as ++; and compounds with IC50>10 μM are shown as +.

`Cc1cn(Cc2ccc(F)c(F)c2)c2c(-c3ccc(NS(=O)(=O)C(F)(F)F)cc3)cc(F)cc12` [Compound B07, N-{4-[1-(3,4-Difluoro-benzyl)-5-fluoro-3-methyl-1H-indol-7-yl]-phenyl}-C,C,C-trifluoro-methanesulfonamide] and `Cc1cn(Cc2ccc(Cl)cc2Cl)c2c(-c3ccc(NS(C)(=O)=O)cc3)cc(F)cc12` [Compound B09, N-{4-[1-(2,4-Dichloro-benzyl)-5-fluoro-3-methyl-1H-indol-7-yl]-phenyl}-methanesulfonamide] cannot be ordered by IC50: over 10000 nM for the first, over 10000 nM for the second.

First: Cc1cn(Cc2ccc(Cl)cc2Cl)c2c(-c3nnc(NS(C)(=O)=O)o3)cc(F)cc12 [Compound B11, N-{5-[1-(2,4-Dichloro-benzyl)-5-fluoro-3-methyl-1H-indol-7-yl]-[1,3,4]oxadiazol-2-yl}-methanesulfonamide]
Second: Cc1cn(Cc2ccc(Cl)cc2Cl)c2c(-c3nnc(NS(=O)(=O)c4cc(Cl)c(Cl)s4)o3)cc(F)cc12 [Compound B13, 4,5-Dichloro-thiophene-2-sulfonic acid {5-[1-(2,4-dichloro-benzyl)-5-fluoro-3-methyl-1H-indol-7-yl]-[1,3,4]oxadiazol-2-yl}-amide]
The IC50 of the first is higher: 1000 to 10000 nM for the first, under 1000 nM for the second. The second is the more potent here.

`Cc1cn(Cc2ccc3ccccc3c2)c2c(-c3cc(NS(=O)(=O)c4cc(Cl)c(Cl)s4)no3)cc(F)cc12` [Compound B41] and `Cc1cn(Cc2ccc(Cl)cc2Cl)c2c(-c3cc(NS(=O)(=O)c4cc(Cl)c(Cl)s4)no3)cc(F)cc12` [Compound B34, 4,5-Dichloro-thiophene-2-sulfonic acid {5-[1-(2,4-dichloro-benzyl)-5-fluoro-3-methyl-1H-indol-7-yl]-isoxazol-3-yl}-amide] cannot be ordered by IC50: under 1000 nM for the first, under 1000 nM for the second.

First: Cn1cc(Cc2ccc3ccccc3c2)c2c(-c3cc(N)nn3S(=O)(=O)c3cc(Cl)c(Cl)s3)cccc21 [Compound B02, 1-(4,5-Dichloro-thiophene-2-sulfonyl)-5-(1-methyl-3-naphthalen-2-ylmethyl-1H-indol-4-yl)-1H-pyrazol-3-ylamine]
Second: Cn1cc(Cc2ccc3ccccc3c2)c2c(-c3cc(NS(=O)(=O)c4cc(Cl)c(Cl)s4)n[nH]3)cccc21 [Compound B01, 4,5-Dichloro-thiophene-2-sulfonic acid [5-(1-methyl-3-naphthalen-2-ylmethyl-1H-indol-4-yl)-1H-pyrazol-3-yl]-amide]
The IC50 of the first is higher: 1000 to 10000 nM for the first, under 1000 nM for the second. The second is the more potent here.

`Cn1cc(Cc2ccc3ccccc3c2)c2c(-c3ccc(NS(C)(=O)=O)cc3)cccc21` [Compound B05, N-[4-(1-Methyl-3-naphthalen-2-ylmethyl-1H-indol-4-yl)-phenyl]-methanesulfonamide] and `Cn1cc(Cc2ccc3ccccc3c2)c2c(-c3ccc(NS(=O)(=O)c4cc(Cl)c(Cl)s4)cc3)cccc21` [Compound B04, 4,5-Dichloro-thiophene-2-sulfonic acid[4-(1-methyl-3-naphthalen-2-ylmethyl-1H-indol-4-yl)-phenyl]-amide] fall in the same range of IC50: 1000 to 10000 nM for the first, 1000 to 10000 nM for the second.

`Cc1cn(Cc2ccc(F)c(F)c2)c2c(-c3cc(NS(=O)(=O)c4cc(F)c(F)cc4F)no3)cc(F)cc12` [Compound B33, N-{5-[1-(3,4-Difluoro-benzyl)-5-fluoro-3-methyl-1H-indol-7-yl]-isoxazol-3-yl}-2,4,5-trifluoro-benzenesulfonamide] and `Cc1cn(Cc2ccc(Cl)cc2Cl)c2c(-c3cc(NS(=O)(=O)c4ccc(F)c(F)c4)no3)cc(F)cc12` [Compound B35, N-{5-[1-(2,4-Dichloro-benzyl)-5-fluoro-3-methyl-1H-indol-7-yl]-isoxazo 1-3-yl}-3,4-difluoro-benzenesulfonamide] cannot be ordered by IC50: under 1000 nM for the first, under 1000 nM for the second.

Compared with `Cc1cn(Cc2ccc(F)c(F)c2)c2c(-c3cc(NS(C)(=O)=O)n(C)n3)cc(F)cc12` [Compound B14, N-{5-[1-(3,4-Difluoro-benzyl)-5-fluoro-3-methyl-1H-indol-7-yl]-2-methyl-2H-pyrazol-3-yl}-methanesulfonamide], `Cc1cn(Cc2ccc(Cl)cc2Cl)c2c(-c3ccc(NS(=O)(=O)c4cc(Cl)c(Cl)s4)nc3)cc(F)cc12` [Compound B46, 4,5-Dichloro-thiophene-2-sulfonic acid {5-[1-(2,4-dichloro-benzyl)-5-fluoro-3-methyl-1H-indol-7-yl]-pyridin-2-yl}-amide] is lower in IC50: 1000 to 10000 nM for the first, under 1000 nM for the second. The second is the more potent here.

`COc1cccc(CN2C(=O)CC3(C)CCCC(c4csc(NS(=O)(=O)c5ccc(F)c(F)c5)n4)=C23)c1` (stereo not shown) [Compound B47, 3,4-Difluoro-N-{4-[1-(3-methoxy-benzyl)-3a-methyl-2-oxo-2,3,3a,4,5,6-hexahydro-1H-indol-7-yl]-thiazol-2-yl}-benzenesulfonamide] and `Cn1cc(-c2cc(NS(=O)(=O)c3ccc(F)c(F)c3)no2)c2c(Oc3ccc4ccccc4c3)cccc21` [Compound B45, 3,4-Difluoro-N-{5-[1-methyl-4-(naphthalen-2-yloxy)-1H-indol-3-yl]-isoxazol-3-yl}-benzenesulfonamide] cannot be ordered by IC50: under 1000 nM for the first, under 1000 nM for the second.
